Measured values: article PMC5146660, “Functional and structural characterization of a novel putative cysteine protease cell wall-modifying multi-domain enzyme selected from a microbial metagenome” (Scientific Reports, 2016)

Target: T1, PCP (putative cysteine protease)
T1 construct: domains 1-48, 49-185 (CHAP, Cys100/His161), 186-247 (PGBD), 248-319 (SH3); monomer; printed peptide 178PVTDALKR185; primers encode start (M)LGQISTA and end KYARLVE
Test: tryptophan fluorescence quenching, double-logarithm regression
Format: binding, uncultured bacterium (Capra hircus rumen metagenome)
Settings: 50 mM NaH2PO4, 300 mM NaCl, 200 mM imidazole, pH 8.5, 25 °C; protein 5.28 μM; excitation 295 nm; read-out: Kb (converted)

Kd: 5.56 µM
SMILES: CC1(C)S[C@@H]2[C@H](NC(=O)[C@H](N)c3ccccc3)C(=O)N2[C@H]1C(=O)O [ampicillin]
